Measured values published in PubChem BioAssay (NCI).
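96-well plates; 48 h exposure; 5 concentrations. Endpoints by linear interpolation between flanking doses. Not reached: highest tested concentration assigned. Definition used: TGI = concentration required for complete inhibition of growth.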

Experiments:
Test in all cases: growth of human tumour cells (NCI), 48 h
[1] = system: OVCAR-4 ovarian
[2] = system: RPMI-8226 leukemia
[3] = system: NCI-H460 lung
[4] = system: A549 NSCLC
[5] = system: HCC-2998 colon
[6] = system: RXF 393 renal
[7] = system: HOP-92 NSCLC
[8] = system: SR leukemia
[9] = system: SF-268 CNS
[10] = system: SW-620 colon
[11] = system: OVCAR-8 ovarian
[12] = system: IGROV1 ovarian
[13] = system: SK-OV-3 ovarian
[14] = system: HOP-62 NSCLC
[15] = system: HCT-116 colon
[16] = system: MDA-MB-231 breast
[17] = system: U251 CNS

Row | SMILES | TGI [1] | TGI [2] | TGI [3] | TGI [4] | TGI [5] | TGI [6] | TGI [7] | TGI [8] | TGI [9] | TGI [10] | TGI [11] | TGI [12] | TGI [13] | TGI [14] | TGI [15] | TGI [16] | TGI [17]
1 | Clc1ccc(-c2cc(-c3cc4cc(Br)ccc4nc3Cl)on2)cc1 | > 50 µM | 41.7 µM | 22.6 µM | > 50 µM | 23.9 µM | 43.9 µM | > 50 µM | > 50 µM | 28.6 µM | 27.5 µM | > 50 µM | > 50 µM | > 50 µM | > 50 µM | 30.7 µM |  | 
2 | O=C(N=Nc1ccc(Cl)cc1Cl)NNc1ccc(Cl)cc1Cl | 38 µM | 61.9 µM | 33.4 µM | 46.7 µM | 23.9 µM |  |  | 78.3 µM | 97.5 µM | 45.8 µM | 37.6 µM | 61.4 µM |  | 18.6 µM | 28.7 µM | 57.8 µM | 36.2 µM
3 | CC1(C)OC(=S)N(c2ccccc2)C12C=Cc1cc3ccccc3nc1S2 (stereo unspecified) |  | > 100 µM | > 100 µM | > 100 µM | > 100 µM | > 100 µM | > 100 µM | 80.1 µM | > 100 µM | > 100 µM | > 100 µM | > 100 µM | > 100 µM | > 100 µM | > 100 µM |  | > 100 µM
4 | COC1(C2c3ccccc3CCN2C(=O)OC(C)(C)C)C(=O)C(c2ccccc2)=C1N(C)C (stereo unspecified) | > 100 µM |  | > 100 µM | > 100 µM |  | > 100 µM | 86.2 µM | > 100 µM | > 100 µM | > 100 µM | > 100 µM |  | > 100 µM | > 100 µM | 96.9 µM |  | > 100 µM
5 | Cc1ccc(/C=C2\NC(=S)NC2=O)cc1 | > 100 µM | > 100 µM |  | > 100 µM | > 100 µM | > 100 µM |  |  | > 100 µM | > 100 µM | > 100 µM | > 100 µM | > 100 µM | > 100 µM | > 100 µM | > 100 µM | > 100 µM
6 | O=c1cc(-c2ccccc2)[nH]c2cc(F)cc(F)c12 | > 100 µM | > 100 µM | > 100 µM | > 100 µM |  | 81.7 µM | > 100 µM | > 100 µM | > 100 µM | > 100 µM | > 100 µM | > 100 µM | > 100 µM | > 100 µM | > 100 µM |  | > 100 µM
7 | COC(=O)C1Cc2c(OC)ccc(OC)c2C(O)C1C(=O)OC (stereo unspecified) | > 100 µM | > 100 µM | > 100 µM | > 100 µM |  | > 100 µM | > 100 µM | > 100 µM | > 100 µM | > 100 µM | > 100 µM | > 100 µM |  | > 100 µM | > 100 µM | > 100 µM | > 100 µM
8 | COc1ccc2oc(S(=O)(=O)N3CC(CCl)c4ccc(N)cc43)cc2c1 (stereo unspecified) | > 100 µM | > 100 µM | 10.6 µM | > 100 µM | 3.05 µM |  | > 64.7 µM |  | > 100 µM | > 100 µM | > 28.3 µM | > 34.1 µM | > 100 µM | > 100 µM | > 8.26 µM | > 24.9 µM | > 100 µM
